The data set can be described thus: Pharmacokinetic study in male SD rats. The class given is in vivo. The conditions noted are these: rat, plasma; for clearance: read-out: Cl—obs iv (clearance rate) (converted); for Vd: read-out: Vss iv (distribution volume); for bioavailability: po 5 mg/kg vs iv 1 mg/kg, read-out: F% (absolute bioavailability); for Tmax: median, read-out: Tmax po (time to peak plasma concentration); for Cmax: read-out: Cmax po (peak concentration). How it is done: Experimental Example 4: Pharmacokinetic Study of Compounds in Male SD Rats
The compounds were prepared into solutions using a mixed vehicle composed of 5% dimethyl sulfoxide, 20% (30% solutol), and 75% normal saline. The compound solutions were intragastrically administered to male SD rats at a dose of 5.0 mg/kg, and the blood collection time points were: 15 min, 30 min, 1 h, 2 h, 4 h, 6 h, 8 h, 10 h, and 24 h.
The compounds were prepared into solutions using a mixed vehicle composed of 5% dimethyl sulfoxide, 20% (30% solutol), and 75% normal saline. The compound solutions were intravenously injected into male SD rats at a dose of 1.0 mg/kg, and the blood collection time points were: 5 min, 15 min, 30 min, 1 h, 2 h, 4h, 6 h, 8h, 10 h, and 24 h.
Intravenous catheterization was performed on the animals the day before the administration. After the administration, blood samples of about 300 μL were collected from the jugular vein and placed into anticoagulation tubes containing EDTA-K2. The blood samples were centrifuged at 5000 rpm at 4° C. for 10 min to give plasma samples. The plasma samples were prepared within 30 min after blood collection. The plasma samples were stored in a −80° C. freezer before testing.

Setting [1] is: iv 1 mg/kg, read-out: AUClast iv (0-24 h).
Where [2] appears, read: iv 1 mg/kg, read-out: tz1/2 iv (terminal half-life) (converted).
Where [3] appears, read: po 5 mg/kg, read-out: AUClast po (0-24 h).
[4] abbreviates: po 5 mg/kg, read-out: tz1/2 po (terminal half-life) (converted).

The structures appear in SMILES notation. Where two headings read alike, the source gives them in different places.

As for `C#Cc1ccc(-c2nnc(N[C@@H]3CCCN(C)C3)c(=O)n2C)c(O)c1` [Compound 23, (R)-3-(4-ethynyl-2-hydoxyphenyl)-4-methyl-6-((1-methylpiperidin-3-yl)amino)-1,2,4-triazin-5(4H)-one], the bioavailability was determined as 81%. Also, under setting [1], the AUC(0-t) came to 1860 ng·h/mL. Under “iv 1 mg/kg”, the clearance was 7.95 mL/min/kg and the Vd was determined as 2.15 L/kg. Also, the half-life under setting [2] was 3.24 h. Further, for the setting “po 5 mg/kg”, the Tmax amounted to 0.5 h and the Cmax was 1260 ng/mL. Besides, the AUC(0-t) under setting [3] was determined as 8480 ng·h/mL. Under setting [4], the half-life was 3.54 h.

Take `C#Cc1ccc(-c2nnc(N[C@@H]3CCCN(CCO)C3)cc2C2CC2)c(O)c1` [Compound 45, (R)-2-(4-Cyclopropyl-6-((1-(2-hydroxyethyl)piperidin-3-yl)amino)pyridazin-3-yl)-5-ethynylphenol]: the bioavailability is 71.5%. Moreover, under setting [1], the AUC(0-t) amounted to 1920 ng·h/mL. Besides, where the note is “iv 1 mg/kg”, the clearance was 8.38 mL/min/kg and the Vd was found to be 3.28 L/kg. Also, the half-life under setting [2] was 5.63 h. Further, where the note is “po 5 mg/kg”, the Tmax came to 4 h and the Cmax amounted to 629 ng/mL. For the same compound, the AUC(0-t) under setting [3] is 6840 ng·h/mL. For the same compound, under setting [4], the half-life was 5.19 h.

In general, clearance refers to the rate of elimination divided by the concentration. The bioavailability is dose-corrected exposure relative to a reference, in per cent.
